Assay results as given in PubChem BioAssay (NCI).
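Method: 48-hour compound exposure of cells in 96-well plates, five concentrations, linear interpolation of endpoints. Here, GI50 denotes the concentration required for 50% inhibition of growth. TGI marks complete inhibition of growth.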

How the values were obtained:
Assay in all cases: DTP human tumour cell line panel, 48 h
[1] = tested on: NCI-H522 lung
[2] = tested on: NCI/ADR-RES ovarian
[3] = tested on: SF-268 CNS
[4] = tested on: SK-OV-3 ovarian
[5] = tested on: RXF 393 renal
[6] = tested on: SK-MEL-2 melanoma
[7] = tested on: PC-3 prostate
[8] = tested on: 786-0 renal
[9] = tested on: A549 NSCLC
[10] = tested on: HCT-116 colon
[11] = tested on: HCT-15 colon
[12] = tested on: NCI-H226 lung
[13] = tested on: SNB-19 CNS
[14] = tested on: UACC-62 melanoma
[15] = tested on: MCF7 breast
[16] = tested on: NCI-H460 lung
[17] = tested on: U251 CNS
[18] = tested on: SK-MEL-28 melanoma
[19] = tested on: COLO 205 colon
[20] = tested on: UO-31 renal
[21] = tested on: OVCAR-8 ovarian
[22] = tested on: OVCAR-3 ovarian
[23] = tested on: KM12 colon
[24] = tested on: SR leukemia
[25] = tested on: RPMI-8226 leukemia
[26] = tested on: SW-620 colon
[27] = tested on: SF-539 CNS
[28] = tested on: OVCAR-5 ovarian
[29] = tested on: DU-145 prostate
[30] = tested on: HOP-62 NSCLC
[31] = tested on: BT-549 breast
[32] = tested on: LOX IMVI melanoma
[33] = tested on: CAKI-1 renal
[34] = tested on: SK-MEL-5 melanoma
[35] = tested on: HCC-2998 colon
[36] = tested on: HS 578T breast
[37] = tested on: SF-295 CNS
[38] = tested on: MDA-MB-435
[39] = tested on: UACC-257 melanoma
[40] = tested on: HT29 colon
[41] = tested on: SNB-75 CNS
[42] = tested on: OVCAR-4 ovarian
[43] = tested on: A498 renal
[44] = tested on: K-562 leukemia
[45] = tested on: ACHN renal
[46] = tested on: IGROV1 ovarian
[47] = tested on: MOLT-4 leukemia
[48] = tested on: HL-60(TB) leukemia
[49] = tested on: MDA-MB-231 breast
[50] = tested on: M14 melanoma
[51] = tested on: CCRF-CEM leukemia
[52] = tested on: SN12C renal
[53] = tested on: HOP-92 NSCLC
[54] = tested on: T-47D breast
[55] = tested on: MALME-3M melanoma
[56] = tested on: NCI-H23 lung
[57] = tested on: TK-10 renal
[58] = tested on: EKVX NSCLC

COc1ccc(-c2c3c(N)c4c(nc3nc3c2c(C)nn3-c2ccccc2)CCCC4)cc1
GI50 [1]: 2.91 µM | TGI [1]: 12.2 µM | GI50 [2]: 3.41 µM | TGI [2]: 14.2 µM | GI50 [3]: 5.33 µM | TGI [3]: 19.4 µM | GI50 [4]: 12.1 µM | TGI [4]: 24.6 µM | GI50 [5]: 8.48 µM | TGI [5]: 26.7 µM | GI50 [6]: 2.63 µM | TGI [6]: 5.95 µM | GI50 [7]: 2.54 µM | TGI [7]: 10.9 µM | GI50 [8]: 4.55 µM | TGI [8]: 17.5 µM | GI50 [9]: 3.01 µM | TGI [9]: 11 µM | GI50 [10]: 2.15 µM | TGI [10]: 5.48 µM | GI50 [11]: 3.08 µM | TGI [11]: 10.9 µM | GI50 [12]: 19.6 µM | TGI [12]: 52.5 µM | GI50 [13]: 10.8 µM | TGI [13]: 26.8 µM | GI50 [14]: 13.7 µM | TGI [14]: 27.9 µM | GI50 [15]: 2.57 µM | TGI [15]: 8.88 µM | GI50 [16]: 3.28 µM | TGI [16]: 11.3 µM | GI50 [17]: 1.72 µM | TGI [17]: 3.56 µM | GI50 [18]: 6.75 µM | TGI [18]: 24.3 µM | GI50 [19]: 2.32 µM | TGI [19]: 5.91 µM | GI50 [20]: 2.46 µM | TGI [20]: 11.5 µM | GI50 [21]: 2.82 µM | TGI [21]: 11.4 µM | GI50 [22]: 4.17 µM | TGI [22]: 15.3 µM | GI50 [23]: 3.16 µM | TGI [23]: 10.8 µM | GI50 [24]: 1.84 µM | TGI [24]: 5.01 µM | GI50 [25]: 1.92 µM | TGI [25]: 4.32 µM | GI50 [26]: 3.05 µM | TGI [26]: 11.8 µM | GI50 [27]: 14.5 µM | TGI [27]: 29.2 µM | GI50 [28]: 10.1 µM | TGI [28]: 23.2 µM | GI50 [29]: 4.72 µM | TGI [29]: 16.4 µM | GI50 [30]: 14.1 µM | TGI [30]: 29.3 µM | GI50 [31]: 17.2 µM | TGI [31]: 33.8 µM | GI50 [32]: 12 µM | TGI [32]: 27 µM | GI50 [33]: 3.88 µM | TGI [33]: 15.9 µM | GI50 [34]: 1.84 µM | TGI [34]: 3.85 µM | GI50 [35]: 3.51 µM | TGI [35]: 12.7 µM | GI50 [36]: 12.5 µM | TGI [36]: 37.2 µM | GI50 [37]: 10.1 µM | TGI [37]: 23.3 µM | GI50 [38]: 3.83 µM | TGI [38]: 16.4 µM | GI50 [39]: 2.43 µM | TGI [39]: 9.38 µM | GI50 [40]: 2.68 µM | TGI [40]: 8.8 µM | GI50 [41]: 14 µM | TGI [41]: 31.8 µM | GI50 [42]: 3.22 µM | TGI [42]: 16.4 µM | GI50 [43]: 11.9 µM | TGI [43]: 27.3 µM | GI50 [44]: 2.3 µM | TGI [44]: 6.85 µM | GI50 [45]: 4.32 µM | TGI [45]: 15.1 µM | GI50 [46]: 4.26 µM | TGI [46]: 18.6 µM | GI50 [47]: 2.3 µM | TGI [47]: 5.77 µM | GI50 [48]: 2.12 µM | TGI [48]: 4.3 µM | GI50 [49]: 4.15 µM | TGI [49]: 16.9 µM | GI50 [50]: 3.74 µM | TGI [50]: 13 µM | GI50 [51]: 2.18 µM | TGI [51]: 6.86 µM | GI50 [52]: 3.72 µM | TGI [52]: 16.1 µM

CC1SC(c2ccc(Cl)cc2)N(CCc2cccs2)C1=O (stereo not given)
GI50 [1]: 1.34 µM | TGI [1]: 2.75 µM | GI50 [2]: 1.39 µM | TGI [2]: 3.2 µM | GI50 [3]: 1.55 µM | TGI [3]: 3.49 µM | GI50 [4]: 2.05 µM | TGI [4]: 5.79 µM | GI50 [5]: 1.56 µM | TGI [5]: 2.94 µM | GI50 [6]: 1.36 µM | TGI [6]: 2.72 µM | GI50 [53]: 0.855 µM | TGI [53]: 2.2 µM | GI50 [7]: 1.75 µM | TGI [7]: 5.07 µM | GI50 [54]: 1.29 µM | TGI [54]: 6.64 µM | GI50 [9]: 2.07 µM | TGI [9]: 7.41 µM | GI50 [10]: 1.09 µM | TGI [10]: 2.28 µM | GI50 [11]: 1.56 µM | TGI [11]: 3.59 µM | GI50 [55]: 2.12 µM | TGI [55]: 4.05 µM | GI50 [12]: 1.5 µM | TGI [12]: 3.26 µM | GI50 [13]: 1.65 µM | TGI [13]: 3.31 µM | GI50 [14]: 1.05 µM | TGI [14]: 2.35 µM | GI50 [15]: 2.11 µM | TGI [15]: 6.23 µM | GI50 [16]: 1.56 µM | TGI [16]: 3.26 µM | GI50 [17]: 1.63 µM | TGI [17]: 3.18 µM | GI50 [18]: 1.58 µM | TGI [18]: 2.99 µM | GI50 [19]: 1.63 µM | TGI [19]: 3.02 µM | GI50 [21]: 1.93 µM | TGI [21]: 4.08 µM | GI50 [22]: 1.42 µM | TGI [22]: 2.74 µM | GI50 [23]: 1.52 µM | TGI [23]: 3.36 µM | GI50 [25]: 1.33 µM | TGI [25]: 4.55 µM | GI50 [26]: 1.54 µM | TGI [26]: 3.22 µM | GI50 [27]: 1.72 µM | TGI [27]: 3.21 µM | GI50 [28]: 1.85 µM | TGI [28]: 4.56 µM | GI50 [56]: 1.48 µM | TGI [56]: 3.85 µM | GI50 [29]: 1.83 µM | TGI [29]: 4.87 µM | GI50 [30]: 1.61 µM | TGI [30]: 3.16 µM | GI50 [31]: 1.49 µM | TGI [31]: 2.81 µM | GI50 [32]: 1.23 µM | TGI [32]: 2.49 µM | GI50 [33]: 1.15 µM | TGI [33]: 3.42 µM | GI50 [34]: 1.43 µM | TGI [34]: 2.75 µM | GI50 [35]: 1.55 µM | TGI [35]: 3.4 µM | GI50 [36]: 1.53 µM | TGI [36]: 4.1 µM | GI50 [37]: 1.23 µM | TGI [37]: 2.53 µM | GI50 [38]: 1.51 µM | TGI [38]: 3.06 µM | GI50 [39]: 1.99 µM | TGI [39]: 4.23 µM | GI50 [40]: 1.48 µM | TGI [40]: 3.14 µM | GI50 [41]: 2.05 µM | TGI [41]: 5.99 µM | GI50 [42]: 1.19 µM | TGI [42]: 2.44 µM | GI50 [43]: 1.21 µM | TGI [43]: 2.47 µM | GI50 [45]: 1.88 µM | TGI [45]: 4.89 µM | GI50 [46]: 1.8 µM | TGI [46]: 5.77 µM | GI50 [47]: 2.46 µM | TGI [47]: 9.11 µM | GI50 [48]: 2.58 µM | TGI [48]: 8.73 µM | GI50 [57]: 1.68 µM | TGI [57]: 3.4 µM | GI50 [49]: 1.55 µM | TGI [49]: 3.28 µM | GI50 [51]: 2.14 µM | TGI [51]: 11.3 µM | GI50 [52]: 1.7 µM | TGI [52]: 3.15 µM | GI50 [58]: 1.3 µM | TGI [58]: 4.47 µM
